Measured values reported in ChEMBL document CHEMBL1201862, “PubChem BioAssay data set” (2004).
Calls of active or inactive are those of the source.

Experiments:
[1] = molecular target: Protein disulfide-isomerase (Homo sapiens, UniProt P07237); test: inhibition of PDI-driven insulin aggregation – biochemical, turbidity, absorbance, cherry-picked samples, dose response (AID 602350); type: functional
BJ [2] = test: BJ-TERT fibroblast viability loss – cell-based, RAS-independent, luminescence, dose response (AID 1933); type: functional; conditions: Homo sapiens
BJ [3] = test: cells; type: functional, cell-based; conditions: Homo sapiens
BJ [4] = test: BJ-TERT-LT-ST fibroblast viability loss – cell-based, RAS-independent, luminescence, dose response (AID 1935); type: functional; conditions: Homo sapiens;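 further: BJ fibroblasts immortalized with TERT plus LT and ST oncogenes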
[5] = DRD fibroblast viability loss – cell-based, non-viral oncogenic, luminescence, dose response (AID 1934); type: functional; conditions: Homo sapiens
[6] = molecular target: T1, Replicative DNA helicase DnaB (Mycobacterium tuberculosis, UniProt P9WMR3); test: DnaB intein splicing inhibitors, dose response, biochemical, cell-free fluorescence (AID 449749); type: functional
T1 sequence (P9WMR3 whole entry): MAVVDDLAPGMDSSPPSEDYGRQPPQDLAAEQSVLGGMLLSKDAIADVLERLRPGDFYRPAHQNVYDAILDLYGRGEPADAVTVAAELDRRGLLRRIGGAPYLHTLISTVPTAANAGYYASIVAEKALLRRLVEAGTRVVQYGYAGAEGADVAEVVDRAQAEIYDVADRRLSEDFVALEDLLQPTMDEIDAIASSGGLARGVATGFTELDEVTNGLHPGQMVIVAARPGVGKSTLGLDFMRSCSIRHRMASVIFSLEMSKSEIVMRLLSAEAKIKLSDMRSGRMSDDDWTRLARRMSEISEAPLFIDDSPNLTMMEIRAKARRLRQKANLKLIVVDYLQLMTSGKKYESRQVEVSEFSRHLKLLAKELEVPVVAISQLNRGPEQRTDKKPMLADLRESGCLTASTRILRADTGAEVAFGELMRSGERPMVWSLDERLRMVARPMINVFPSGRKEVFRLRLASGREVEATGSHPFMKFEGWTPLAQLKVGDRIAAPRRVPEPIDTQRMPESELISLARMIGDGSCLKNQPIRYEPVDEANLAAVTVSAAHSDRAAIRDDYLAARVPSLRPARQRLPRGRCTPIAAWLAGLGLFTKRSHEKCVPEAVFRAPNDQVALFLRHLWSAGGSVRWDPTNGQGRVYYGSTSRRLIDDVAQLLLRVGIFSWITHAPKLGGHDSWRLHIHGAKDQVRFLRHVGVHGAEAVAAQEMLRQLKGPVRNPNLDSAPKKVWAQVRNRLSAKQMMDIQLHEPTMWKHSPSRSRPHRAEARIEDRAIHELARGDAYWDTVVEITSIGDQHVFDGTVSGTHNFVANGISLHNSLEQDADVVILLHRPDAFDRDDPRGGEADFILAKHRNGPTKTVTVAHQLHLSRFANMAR

BJ [7] = test: growth inhibition of engineered Ras-driven BJ cells – cell-based, alamar blue fluorescence, cherrypicked samples, dose response (AID 2631); type: functional; conditions: Homo sapiens;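 further: confirmatory dose-response assay in RAS-dependent BJ fibroblasts engineered with TERT, LT and ST, with cytotoxicity read by fluorescence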
Protein RecA = molecular target: T2, Protein RecA (Mycobacterium tuberculosis, UniProt P9WHJ3); test: Fluorescence Cell-Free Homogeneous Dose Retest to Identify Inhibitors of RecA-Intein Splicing Activity. [Related pubchem assays (depositor defined):AID2097, AID2223, AID489010, AID492950]; type: functional
T2 sequence (P9WHJ3 whole entry): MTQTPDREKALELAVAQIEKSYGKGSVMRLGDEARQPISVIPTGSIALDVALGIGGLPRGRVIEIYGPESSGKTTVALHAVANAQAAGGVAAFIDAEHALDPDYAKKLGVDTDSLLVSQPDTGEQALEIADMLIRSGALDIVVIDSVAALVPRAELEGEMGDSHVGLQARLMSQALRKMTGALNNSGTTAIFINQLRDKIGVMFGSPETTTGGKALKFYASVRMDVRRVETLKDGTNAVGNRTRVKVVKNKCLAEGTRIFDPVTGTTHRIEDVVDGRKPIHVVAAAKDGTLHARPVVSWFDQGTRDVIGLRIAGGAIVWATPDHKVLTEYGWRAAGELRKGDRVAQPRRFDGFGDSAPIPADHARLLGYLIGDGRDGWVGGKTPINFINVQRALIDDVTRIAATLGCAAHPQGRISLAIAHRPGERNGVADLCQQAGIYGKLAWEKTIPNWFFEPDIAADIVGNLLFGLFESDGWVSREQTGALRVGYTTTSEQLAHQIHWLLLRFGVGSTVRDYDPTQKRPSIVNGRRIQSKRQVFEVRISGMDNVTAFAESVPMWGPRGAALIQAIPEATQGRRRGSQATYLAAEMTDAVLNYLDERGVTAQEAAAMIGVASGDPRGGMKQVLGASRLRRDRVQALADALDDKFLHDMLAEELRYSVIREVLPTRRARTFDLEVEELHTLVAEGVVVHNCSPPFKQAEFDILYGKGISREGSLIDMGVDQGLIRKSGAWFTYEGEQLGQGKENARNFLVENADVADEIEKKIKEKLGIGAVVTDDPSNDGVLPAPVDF

[8] = molecular target: T3, Probable nicotinate-nucleotide adenylyltransferase (Staphylococcus aureus (strain N315), UniProt P65502); type: functional, Staphylococcus aureus subsp. aureus N315;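 on IC50 Mean: confirmatory dose-response retesting of NadD inhibitor hits first found in an ultra-high-throughput screen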
T3 sequence (P65502 whole entry): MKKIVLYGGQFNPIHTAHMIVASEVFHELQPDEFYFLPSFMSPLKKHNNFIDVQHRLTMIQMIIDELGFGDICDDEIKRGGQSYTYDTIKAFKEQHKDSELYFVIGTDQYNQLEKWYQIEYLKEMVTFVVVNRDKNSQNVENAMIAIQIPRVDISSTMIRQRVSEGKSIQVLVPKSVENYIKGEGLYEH

[9] = molecular target: T3, Probable nicotinate-nucleotide adenylyltransferase; type: functional, Staphylococcus aureus subsp. aureus N315; conditions: read-out: IC50_Mean
[10] = molecular target: Photoreceptor-specific nuclear receptor (Homo sapiens, UniProt Q9Y5X4); type: functional, cell-based;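 further: CHO-S cells with Gal4-NCOR and VP16-NR2E3 two-hybrid luciferase reporter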
Photoreceptor-specific nuclear receptor, sequence (Q9Y5X4 whole entry, the tested form may be a part): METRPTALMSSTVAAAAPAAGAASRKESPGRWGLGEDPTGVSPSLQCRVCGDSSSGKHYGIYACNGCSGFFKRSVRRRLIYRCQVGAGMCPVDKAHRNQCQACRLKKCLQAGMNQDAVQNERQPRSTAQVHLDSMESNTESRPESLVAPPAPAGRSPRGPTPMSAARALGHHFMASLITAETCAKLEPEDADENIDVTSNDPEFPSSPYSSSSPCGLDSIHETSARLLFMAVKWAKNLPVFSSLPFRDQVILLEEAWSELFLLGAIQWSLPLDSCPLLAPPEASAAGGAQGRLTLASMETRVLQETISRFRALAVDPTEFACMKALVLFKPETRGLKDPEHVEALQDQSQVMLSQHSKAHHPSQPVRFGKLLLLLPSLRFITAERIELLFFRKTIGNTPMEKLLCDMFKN

Exodeoxyribonuclease V = molecular target: T4, Exodeoxyribonuclease V (Escherichia coli (strain K12), UniProt P04993+P07648+P08394); test: RecBCD inhibition via phage-restricted bacterial growth – absorbance, V66 E. coli, mutant T4 phage, counter-screen for AddAB inhibitor project, dose response (AID 492957); type: functional, cell-based, Escherichia coli str. K-12 substr. MG1655
T4 sequence (P04993 whole entry): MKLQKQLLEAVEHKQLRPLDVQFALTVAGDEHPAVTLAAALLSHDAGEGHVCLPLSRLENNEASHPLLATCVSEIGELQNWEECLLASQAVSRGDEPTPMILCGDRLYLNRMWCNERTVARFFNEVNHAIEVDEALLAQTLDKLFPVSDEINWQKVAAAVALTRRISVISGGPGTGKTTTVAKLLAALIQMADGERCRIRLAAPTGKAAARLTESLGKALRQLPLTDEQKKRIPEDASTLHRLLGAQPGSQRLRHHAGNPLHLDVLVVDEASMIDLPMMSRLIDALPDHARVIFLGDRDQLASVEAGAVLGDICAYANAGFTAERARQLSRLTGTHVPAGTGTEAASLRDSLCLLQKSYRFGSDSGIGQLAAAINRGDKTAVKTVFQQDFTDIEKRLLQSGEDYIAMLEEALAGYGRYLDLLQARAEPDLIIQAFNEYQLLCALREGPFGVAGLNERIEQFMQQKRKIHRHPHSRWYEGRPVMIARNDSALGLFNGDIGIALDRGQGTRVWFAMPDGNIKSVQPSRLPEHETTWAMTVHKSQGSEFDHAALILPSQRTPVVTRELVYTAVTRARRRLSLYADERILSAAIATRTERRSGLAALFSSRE
T4 sequence (P07648 whole entry): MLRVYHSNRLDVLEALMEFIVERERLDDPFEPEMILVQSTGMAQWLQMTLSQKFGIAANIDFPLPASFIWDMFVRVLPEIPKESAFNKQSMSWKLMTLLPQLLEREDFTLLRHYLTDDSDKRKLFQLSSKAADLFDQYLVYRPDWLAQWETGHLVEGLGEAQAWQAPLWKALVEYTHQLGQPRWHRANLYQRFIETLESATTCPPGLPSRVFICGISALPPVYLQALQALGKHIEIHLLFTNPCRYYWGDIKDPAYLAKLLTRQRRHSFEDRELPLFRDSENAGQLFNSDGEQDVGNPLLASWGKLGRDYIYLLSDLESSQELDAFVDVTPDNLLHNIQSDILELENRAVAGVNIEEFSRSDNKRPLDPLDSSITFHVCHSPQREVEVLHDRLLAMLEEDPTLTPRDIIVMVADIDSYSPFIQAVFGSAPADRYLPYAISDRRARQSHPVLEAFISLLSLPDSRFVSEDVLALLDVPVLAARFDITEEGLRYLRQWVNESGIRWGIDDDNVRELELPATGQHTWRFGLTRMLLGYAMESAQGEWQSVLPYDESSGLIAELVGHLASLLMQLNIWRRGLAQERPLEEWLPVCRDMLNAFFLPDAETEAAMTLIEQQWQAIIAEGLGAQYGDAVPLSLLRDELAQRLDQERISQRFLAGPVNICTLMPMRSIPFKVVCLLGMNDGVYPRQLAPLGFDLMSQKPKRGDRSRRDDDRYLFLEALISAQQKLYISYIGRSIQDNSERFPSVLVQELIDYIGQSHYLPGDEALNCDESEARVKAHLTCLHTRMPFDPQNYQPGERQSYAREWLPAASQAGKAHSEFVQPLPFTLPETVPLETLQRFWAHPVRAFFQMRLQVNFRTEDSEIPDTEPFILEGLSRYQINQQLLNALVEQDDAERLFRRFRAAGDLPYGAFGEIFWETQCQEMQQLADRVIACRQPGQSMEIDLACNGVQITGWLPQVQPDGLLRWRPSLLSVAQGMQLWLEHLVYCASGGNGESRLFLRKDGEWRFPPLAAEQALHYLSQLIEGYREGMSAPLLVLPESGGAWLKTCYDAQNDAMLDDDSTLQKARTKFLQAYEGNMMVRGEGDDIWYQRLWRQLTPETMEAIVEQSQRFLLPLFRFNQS
T4 sequence (P08394 whole entry): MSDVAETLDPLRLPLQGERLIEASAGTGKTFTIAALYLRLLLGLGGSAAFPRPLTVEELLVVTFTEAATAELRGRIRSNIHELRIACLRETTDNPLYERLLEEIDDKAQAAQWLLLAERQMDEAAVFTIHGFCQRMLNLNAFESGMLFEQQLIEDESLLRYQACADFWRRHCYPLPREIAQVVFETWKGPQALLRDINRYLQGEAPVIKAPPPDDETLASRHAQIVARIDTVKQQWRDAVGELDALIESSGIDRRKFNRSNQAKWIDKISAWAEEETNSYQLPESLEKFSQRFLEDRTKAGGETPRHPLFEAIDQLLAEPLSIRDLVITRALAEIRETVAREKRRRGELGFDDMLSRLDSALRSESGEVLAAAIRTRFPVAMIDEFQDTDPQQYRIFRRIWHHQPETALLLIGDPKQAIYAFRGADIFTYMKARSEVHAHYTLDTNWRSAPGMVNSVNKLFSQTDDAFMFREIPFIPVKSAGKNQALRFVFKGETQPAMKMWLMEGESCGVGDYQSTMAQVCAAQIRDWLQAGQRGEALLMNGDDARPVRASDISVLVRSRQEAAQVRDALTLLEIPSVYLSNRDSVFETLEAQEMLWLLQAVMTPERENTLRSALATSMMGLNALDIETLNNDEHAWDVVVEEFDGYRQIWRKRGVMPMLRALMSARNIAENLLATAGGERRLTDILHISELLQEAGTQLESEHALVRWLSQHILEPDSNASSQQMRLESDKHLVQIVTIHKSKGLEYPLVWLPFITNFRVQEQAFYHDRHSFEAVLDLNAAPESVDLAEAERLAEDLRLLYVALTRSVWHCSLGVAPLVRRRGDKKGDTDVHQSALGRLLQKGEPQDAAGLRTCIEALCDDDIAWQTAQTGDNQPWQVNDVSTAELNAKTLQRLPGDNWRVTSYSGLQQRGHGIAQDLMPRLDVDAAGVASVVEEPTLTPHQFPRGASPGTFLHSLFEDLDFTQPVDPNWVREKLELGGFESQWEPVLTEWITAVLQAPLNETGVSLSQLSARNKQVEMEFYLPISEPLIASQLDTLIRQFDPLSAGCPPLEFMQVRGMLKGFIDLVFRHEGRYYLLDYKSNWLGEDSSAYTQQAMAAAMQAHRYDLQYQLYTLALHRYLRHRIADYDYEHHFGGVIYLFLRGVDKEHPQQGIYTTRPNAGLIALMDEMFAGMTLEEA

[11] = Counterscreen for AddAB inhibitors: absorbance-based bacterial cell-based high throughput dose response assay for inhibitors of bacterial viability. [Related pubchem assays (depositor defined):AID435030, AID449728, AID449731, AID488942, AID488955, AID488956]; type: functional
[12] = reduction of Shn3 3'UTR-driven luciferase in osteoblasts – cell-based, Clone20 osteoblasts, firefly luciferase, cherry-picked, dose response (AID 624132); type: functional;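 further: firefly luciferase luminescence from reporter carrying the Shn3 3'UTR in osteoblasts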
[13] = loss of viability in HepG2 cells – cell-based, CellTiter-Glo, cherry-picked, cytotoxicity control for Shn3 inhibitor project, dose response (AID 624134); type: functional

Protein disulfide-isomerase, sequence (P07237 whole entry): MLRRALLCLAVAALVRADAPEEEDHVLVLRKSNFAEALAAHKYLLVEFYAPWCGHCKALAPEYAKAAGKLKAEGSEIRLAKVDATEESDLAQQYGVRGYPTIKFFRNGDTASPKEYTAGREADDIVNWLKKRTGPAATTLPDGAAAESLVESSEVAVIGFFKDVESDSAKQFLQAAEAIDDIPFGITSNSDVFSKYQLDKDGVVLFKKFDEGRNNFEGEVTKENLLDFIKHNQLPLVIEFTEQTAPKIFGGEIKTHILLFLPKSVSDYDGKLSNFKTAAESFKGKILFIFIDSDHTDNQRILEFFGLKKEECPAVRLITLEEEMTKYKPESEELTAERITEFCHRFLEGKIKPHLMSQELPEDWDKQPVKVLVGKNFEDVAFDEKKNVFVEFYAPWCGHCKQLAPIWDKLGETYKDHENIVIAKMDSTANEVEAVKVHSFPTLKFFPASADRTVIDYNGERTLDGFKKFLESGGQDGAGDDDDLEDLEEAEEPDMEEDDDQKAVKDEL

Question: Which AC50 [1] does the source give for Cc1c(O)ccc2c(CN3CCN(C/C=C/c4ccccc4)CC3)cc(=O)oc12 here?
Answer: 19.5 µM (active)

Question: For Cc1cc(O)cc2c1C1CCC3(C)C(=O)CCC3C1C=C2 (stereo not given), which AC50 [1] is on record?
Answer: 19.5 µM (active)

Question: With COc1cccc(/C=C2\SC(=S)N(CCCC(=O)N(CCO)c3ccccc3)C2=O)c1 as the molecule, how does the EC50 (BJ [2]) read?
Answer: 3.1 µM (inconclusive)

Question: What about the EC50 (BJ [3]) of the same molecule?
Answer: > 150 µM (not active)

Question: What about the EC50 (BJ [4]) of the same molecule?
Answer: > 75 µM (inconclusive)

Question: What about the EC50 [5] of the same molecule?
Answer: 6.07 µM (inconclusive)

Question: What about the AC50 [6] of the same molecule?
Answer: 41.7 µM (active)

Question: And the EC50 (BJ [7])?
Answer: > 66.7 µM (inactive)

Question: What about the EC50 (Protein RecA) of the same molecule?
Answer: 7.22 µM (active)

Question: With Cc1ccc(NCc2nnc(SCC(=O)c3ccccc3)n2Cc2ccco2)c(C)c1 as the molecule, how does the IC50 [8] read?
Answer: 12.1 µM (active)

Question: What about the IC50 [9] of the same molecule?
Answer: 23 µM (active)

Question: With NC(=O)c1nn(-c2ccccc2)nc1NC(=O)CSc1nnnn1-c1ccc(Cl)cc1 as the molecule, how does the IC50 [10] read?
Answer: 2.27 µM (active)

Question: With c1ccc(-c2cc(CSc3nc4ccccc4[nH]3)on2)cc1 as the molecule, how does the IC50 (Exodeoxyribonuclease V) read?
Answer: > 119 µM (inactive)

Question: What about the IC50 [11] of the same molecule?
Answer: > 119 µM (inactive)

Question: And the AC50 [12]?
Answer: 3.76 µM (active)

Question: What about the AC50 [13] of the same molecule?
Answer: 58.3 µM (active)

Question: What about the IC50 [10] of the same molecule?
Answer: 4.61 µM (active)

Question: Which results are given for COc1ccc2c(CC(=O)OCC(=O)N(C)c3c(N)n(Cc4ccccc4)c(=O)[nH]c3=O)coc2c1?
Answer: AC50 [12]: 21.2 µM (active); AC50 [1]: 5.45 µM (active)

Question: Which AC50 [1] does the source give for CCOC(=O)C1(CCOc2ccccc2)CCN(Cc2cc(OC)c(O)cc2Cl)CC1 here?
Answer: 6.03 µM (active)
